According to patent US20250049791A1, “Synthesis of MEK7 Inhibitors and methods of Use Thereof” (Northwestern University, priority 2023, published 2025):
Entries after “also recorded” stand apart in the source; their conditions may differ. Where two headings read alike, the source gives them in different places.

Legend:
MEK3 = target: T1, MEK3 (Homo sapiens, UniProt P46734); assay: Additional selectivity assay, MEK3 (FIG. 9); type: binding
T1 sequence (P46734 1-347): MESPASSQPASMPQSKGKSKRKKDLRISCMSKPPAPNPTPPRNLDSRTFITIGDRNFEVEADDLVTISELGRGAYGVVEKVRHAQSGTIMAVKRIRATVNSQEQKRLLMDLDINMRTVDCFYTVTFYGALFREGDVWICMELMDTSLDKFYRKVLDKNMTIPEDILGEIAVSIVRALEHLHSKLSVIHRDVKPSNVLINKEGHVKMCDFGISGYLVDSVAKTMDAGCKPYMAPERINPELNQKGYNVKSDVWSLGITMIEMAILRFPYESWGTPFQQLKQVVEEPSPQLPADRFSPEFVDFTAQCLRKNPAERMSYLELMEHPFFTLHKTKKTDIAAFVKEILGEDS

MEK6 = target: T2, MEK6 (Homo sapiens, UniProt P52564); assay: Additional selectivity assay, MEK6 (FIG. 9); type: binding
T2 sequence (P52564 1-334): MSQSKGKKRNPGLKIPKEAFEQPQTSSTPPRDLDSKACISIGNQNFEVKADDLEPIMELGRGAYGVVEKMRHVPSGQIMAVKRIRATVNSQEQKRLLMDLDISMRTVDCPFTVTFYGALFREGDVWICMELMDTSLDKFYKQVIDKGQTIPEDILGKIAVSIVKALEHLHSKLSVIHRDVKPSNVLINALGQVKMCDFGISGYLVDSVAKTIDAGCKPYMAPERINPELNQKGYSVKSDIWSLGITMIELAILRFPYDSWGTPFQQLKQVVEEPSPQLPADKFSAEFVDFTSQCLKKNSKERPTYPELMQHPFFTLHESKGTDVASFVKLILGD

[1] = target: T3, recombinant active full-length human MEK7 (Homo sapiens, UniProt O14733); assay: ADP-Glo kinase activity assay, MEK7 with JNK1 substrate; type: biochemical
T3 construct: recombinant active full-length human MEK7 (Carna Biosciences); purchased Carna Biosciences
T3 sequence (O14733 1-419): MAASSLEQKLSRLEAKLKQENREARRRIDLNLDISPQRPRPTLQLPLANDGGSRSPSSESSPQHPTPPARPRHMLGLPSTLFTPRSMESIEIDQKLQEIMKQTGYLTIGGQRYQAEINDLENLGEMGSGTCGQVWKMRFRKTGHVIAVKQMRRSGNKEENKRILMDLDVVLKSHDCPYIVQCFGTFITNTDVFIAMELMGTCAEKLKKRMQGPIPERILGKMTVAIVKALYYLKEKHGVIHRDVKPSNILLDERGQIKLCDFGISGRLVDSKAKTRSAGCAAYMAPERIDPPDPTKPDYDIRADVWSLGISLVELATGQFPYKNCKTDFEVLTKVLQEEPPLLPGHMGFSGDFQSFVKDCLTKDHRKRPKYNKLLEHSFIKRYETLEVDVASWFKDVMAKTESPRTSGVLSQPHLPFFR
Experimental: Procedure for a 5 μL Kinase reaction using the ADP-Glo Kinase Assay Kit from Promega. Staurosporine was used as the positive control, and DMSO (vehicle) was employed as the negative control. Activity of recombinant active full-length human MEK7 (Carna Biosciences) was measured with recombinant full-length human substrate JNK1 (MAPK8). Using a Mantis, a mixture of MEK7 and JNK1 was dispensed into a 384-well low volume white Proxiplate. For each well, 4 ng of MEK7 and 600 ng of JNK1 in kinase buffer (CST) were used, accounting for 1 μL of this mixture per well. Inhibitor was prepared in a DMSO solution (40 mM). A dose-response dilution was performed in a 384-well Echo transfer plate. Using an Echo Access, 10 nL of each solution was dispensed into the same 384-well low volume white Proxiplate as above. This mixture was allowed to incubate for 30 minutes at room temperature. Using a Mantis, 1 uL of an 8 μM ATP solution was added to each well, and the plate was allowed to incubate for another 1 hour at room temperature. Using the Mantis again, 4 μL of ADP Glo Reagent was dispensed into each well, and the plate was allowed to incubate for 45 min at room temperature. Finally, 9 μL of Kinase Detection Reagent was added manually to each well, and the plate was allowed to incubate for 45 minutes at room temperature. Luminescence was read on a Synergy Neo2 Plate Reader with filter cubes 3 and 114. Integration time was set to 0.20 seconds, gain set to 160, and read height set at 6 mm. All experiments were performed in triplicate on the plate, and at least in one separate technical duplicate was performed.
MEK4 selectivity was performed in the same manner with activated MEK4 (Carna Biosciences). Here, p-38α was employed as the kinase substrate in lieu of JNK1 due to the availability of reagents. […] To probe the ATP-competitive nature of 25, this compound was subjected to a similar assay forgoing the 30 minute incubation time described above (STAR Protocols 2021, 2, 100717). The results are tabulated below in compound characterization. Potency determined by duplicate of triplicates corresponded to a IC50 value, which is in line with the ratio difference observed among other covalent inhibitors (for examples, see Cell Chem. Biol. 2020, 27, 1285).

EGFR = target: T4, EGFR (Homo sapiens, UniProt P00533); assay: ScanEDGE competition binding, EGFR; details: at 1 μM; b168 prints 1 M
T4 construct: purchased DiscoverX (Eurofins)
Description: The ScanEDGE assay, completed by DiscoverX (Eurofins) is a proprietary active site-directed competition binding assay. Compounds that bind the kinase active site prevent kinase binding to the immobilized ligand, reducing the amount of kinase captured on the solid support. Hits are identified by measuring the amount of kinase captured in experimental vs, control samples by a qPCR method that detects an associated DNA label. According to data provided by Eurofins, a typical hit at 5-10% of control signal in a 1 μM assay as shown above is generally associated with a KD in the range of 100-1,000 nM. Readings with greater than 35% of control signal correspond to exceeding large dissociation constants.

T4 sequence (P00533 25-1210): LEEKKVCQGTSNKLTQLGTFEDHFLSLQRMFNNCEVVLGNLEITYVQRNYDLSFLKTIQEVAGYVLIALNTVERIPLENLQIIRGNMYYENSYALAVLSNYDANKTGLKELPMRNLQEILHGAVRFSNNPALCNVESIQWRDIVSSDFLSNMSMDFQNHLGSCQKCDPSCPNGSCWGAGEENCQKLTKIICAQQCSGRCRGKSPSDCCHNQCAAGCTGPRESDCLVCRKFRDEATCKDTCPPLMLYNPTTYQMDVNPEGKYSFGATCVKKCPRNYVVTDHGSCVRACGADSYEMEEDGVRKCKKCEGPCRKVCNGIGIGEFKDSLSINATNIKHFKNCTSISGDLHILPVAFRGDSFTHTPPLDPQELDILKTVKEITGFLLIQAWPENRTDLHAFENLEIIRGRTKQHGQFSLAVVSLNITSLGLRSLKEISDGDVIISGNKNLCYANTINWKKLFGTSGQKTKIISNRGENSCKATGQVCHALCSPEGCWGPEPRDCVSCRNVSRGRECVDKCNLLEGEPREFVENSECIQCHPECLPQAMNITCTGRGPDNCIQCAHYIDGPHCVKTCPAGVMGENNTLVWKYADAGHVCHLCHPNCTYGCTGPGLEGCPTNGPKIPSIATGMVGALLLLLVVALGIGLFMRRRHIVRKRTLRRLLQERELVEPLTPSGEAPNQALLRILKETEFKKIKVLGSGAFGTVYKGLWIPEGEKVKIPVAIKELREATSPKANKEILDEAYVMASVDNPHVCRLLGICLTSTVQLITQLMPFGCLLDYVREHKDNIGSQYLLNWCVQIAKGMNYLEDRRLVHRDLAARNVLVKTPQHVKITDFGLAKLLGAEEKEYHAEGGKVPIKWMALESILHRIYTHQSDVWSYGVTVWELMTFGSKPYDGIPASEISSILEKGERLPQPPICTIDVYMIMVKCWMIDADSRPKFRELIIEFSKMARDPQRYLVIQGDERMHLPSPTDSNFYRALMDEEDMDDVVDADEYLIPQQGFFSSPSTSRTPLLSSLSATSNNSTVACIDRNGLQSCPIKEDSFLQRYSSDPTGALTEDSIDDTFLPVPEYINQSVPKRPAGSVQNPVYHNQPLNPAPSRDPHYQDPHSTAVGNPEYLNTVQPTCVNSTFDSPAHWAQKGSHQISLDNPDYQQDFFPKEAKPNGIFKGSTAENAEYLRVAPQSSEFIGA

- activity/binding at MEK3 (MEK3): inactive; also recorded: lack of binding
- activity/binding at MEK6 (MEK6): inactive; also recorded: lack of binding
- IC50 ([1]; 30 min preincubation, read-out: MEK7 IC50): 10 nM
- IC50 ([1]; MEK7 IC50, first experiment (IC50±SEM, n=3), 30 min preincubation, first value in brackets): 17 nM
- IC50 ([1]; MEK7 IC50, second experiment (IC50±SEM, n=3), 30 min preincubation, second value in brackets): < 1.4 nM
- IC50 ([1]; MEK7 IC50 without preincubation, first experiment (n=3), without preincubation, first value in brackets): 67 ± 21 nM
- IC50 ([1]; MEK7 IC50 without preincubation, second experiment (n=3), without preincubation, second value in brackets): 119 nM
- IC50 ([1]; without 30 min preincubation, overall value, read-out: MEK7 IC50 without preincubation): 93 nM
- IC50 ([1]; without preincubation, no unit printed, read-out: MEK7 IC50 without preincubation): 93 nM
Compound: O=C(CCl)Nc1cccc(Oc2cc(NCc3ccccc3)ncn2)c1 [Compound 25, N-(3-((6-(benzylamino)pyrimidin-4-yl)oxy)phenyl)-2-chloroacetamide]
- binding to EGFR (EGFR): interacted significantly; also recorded: appreciably bound
